According to patent publication US10913757B2, “Hydroxycinnamic derivatives, methods and uses thereof” (UNIVERSIDADE DO PORTO, priority 2016, dated 2021):

Legend:
[1] = Iron (II) chelating properties, ferrozine assay; format: biochemical; details: 100 μM, EDTA=100%, FIG. 2
Procedure: In an embodiment, AntiOxCINs iron (II) chelating properties were evaluated by the ferrozine assay using ethylenediaminetetracetic acid (EDTA) as reference.
In an embodiment, AntiOxCINs iron chelating properties were evaluated by the spectrophotometric ferrozine method performed in a multiplate reader (Powerwave XS Microplate Reader) of Bio-Tech instruments.
In an embodiment, the AntiOxCINs iron chelating properties were evaluated as follows: in each well, a solution of the test compound (100 μM) and ammonium iron (II) sulphate in ammonium acetate (20 μM) were added, incubated for 10 min and the absorbance was read at 562 nm. Then, a freshly prepared solution of ferrozine (5 mM) was added to each well (96 μM final concentration). After a new incubation at 37° C. for 10 min period, the absorbance of [Fe(ferrozine)3]^2+ complex was measured at 562 nm. Blank wells were run using DMSO instead of the test compounds. EDTA was used as a reference. All compounds were tested at a final concentration of 100 μM. The absorbance of the first reading was subtracted to the final values to abolish any absorbance due to the test compounds. Data are means±SEM of three independent experiments and are expressed as % of Fe(II) chelation (EDTA=100%).

[2] = system: rat liver mitochondria (RLM) membranes; assay: RLM lipid peroxidation, TBARS assay (FeSO4/H2O2/ascorbate); format: biochemical; details: 5 μM pre-incubation, FIG. 4A
Procedure: In an embodiment, and as an example, AntiOxCINs antioxidant performance, on the protection of lipid peroxidation of RLM membranes was determined. Two different oxidative stressor agents, FeSO4/H2O2/ascorbate and ADP/FeSO4, and two end-points, TBARS production and oxygen-consumption, respectively, have been used. MitoQ was used as reference (FIGS. 4 and 5).
In an embodiment, the evaluation of AntiOxCINs functional mitochondrial toxicity profile was performed in rat liver mitochondria (RLM). RLM were prepared by tissue homogenization followed by differential centrifugations in ice-cold buffer containing 250 mM sucrose, 10 mM HEPES (pH 7.4), 1 mM EGTA, and 0.1% fat-free bovine serum albumin. […] The protein concentration was determined by the biuret assay using BSA as a standard.
In an embodiment, the effect of AntiOxCINs on RLM lipid peroxidation was measured by thiobarbituric acid reactive species (TBARS) assay as follows: RLM (2 mg protein/ml) were incubated in 0.8 mL medium containing 100 mM KCl, 10 mM Tris-HCl and pH 7.6, at 37° C., supplemented with 5 mM glutamate/2.5 mM malate as substrate. […] The fluorescence of aliquots (250 μL) of the organic layer was analyzed in a plate reader (λEx=515 nm; λEm=553 nm) for TBARS. […] Data are means±SEM of three independent experiments and are expressed as % of control (control=100%).

[3] = system: rat liver mitochondria (RLM); assay: Mitochondrial respiration of isolated RLM (Clark-type oxygen electrode); format: biochemical
Procedure: (§1) In an embodiment, and as an example, AntiOxCINs and MitoQ toxicity effects on the mitochondrial bioenergetics, namely on RLM ΔΨ and mitochondrial respiration parameters, were measured. The […] represents the main component of the electrochemical gradient generated by mitochondrial respiration and accounts for more than 90% of the total available energy. For mitochondrial respiration assays, glutamate/malate (for complex I) and succinate (for complex II) were used as substrates. In addition, the mitochondrial oxidative phosphorylation coupling index, known as respiratory control ratio (RCR, state 3/state 4 respiration) and ADP/O index (the coupling between ATP synthesis and oxygen consumption) were also calculated. AntiOxCINs and MitoQ were tested at antioxidant-relevant concentrations, with 10 μM being the highest concentration.
(§2) In an embodiment, the evaluation of AntiOxCINs functional mitochondrial toxicity profile was performed in rat liver mitochondria (RLM). […] The protein concentration was determined by the biuret assay using BSA as a standard.
In an embodiment, the evaluation of AntiOxCINs effect on mitochondrial respiration was performed as follows: the respiration of isolated RLM was evaluated polarographically with a Clark-type oxygen electrode, connected to a suitable recorder in a 1 mL thermostated water-jacketed chamber with magnetic stirring, at 37° C.^1. […] Increasing concentrations of AntiOxCINs (2.5-10 μM) were added to the reaction medium containing respiratory substrates glutamate/malate (10 mM and 5 mM respectively) or succinate (5 mM) and RLM (1 mg) and allowed to incubate for a 5 min period prior to the assay. State 2 was considered as the respiration during the 5 min incubation time with AntiOxCINs. […] State 4 was determined after ADP phosphorylation finished. Subsequent addition of oligomycin (2 μg/ml) inhibited ATP-synthase and originated the oligomycin-inhibition respiration state. Finally, 1 μM FCCP was added to induce uncoupled respiration.

[4] = system: rat liver mitochondria (RLM); assay: Mitochondrial transmembrane electric potential (ΔΨ) of RLM, safranine fluorescence; format: biochemical
Procedure: as §1, §2
Then, 1 μM FCCP was added at the end of all experiments to depolarize mitochondria. ΔΨ was calculated using a calibration curve obtained when RLM were incubated in a K^+-free reaction medium containing 200 mM sucrose, 1 mM NaH2PO4, 10 mM Tris (pH 7.4) and 10 μM EGTA, supplemented with 0.4 μg valinomicin. […] “Repolarization” corresponded to the recovery of membrane potential after the complete phosphorylation of ADP added. Lag phase reflected the time required to phosphorylate the added ADP. […] Data are means±SEM of five independent experiments.

[5] = system: mitochondrial permeability transition pore (mPTP) of RLM; assay: Mitochondrial permeability transition pore (mPTP) opening, mitochondrial swelling; format: biochemical, rat; details: 2.5, 5 and 10 μM, pre-incubated 5 min before calcium, FIG. 7A-C
Procedure: In an embodiment, the AntiOxCINs effects on mitochondrial permeability transition pore (mPTP) opening were evaluated. In general, less lipophilic AntiOxCINs had no effect on mPTP opening for all tested concentrations (FIG. 7A-C).
In an embodiment, the evaluation of AntiOxCINs functional mitochondrial toxicity profile was performed in rat liver mitochondria (RLM). RLM were prepared by tissue homogenization followed by differential centrifugations in ice-cold buffer containing 250 mM sucrose, 10 mM HEPES (pH 7.4), 1 mM EGTA, and 0.1% fat-free bovine serum albumin. After obtaining a crude mitochondrial preparation, pellets were washed twice and resuspended in washing buffer (250 mM sucrose and 10 mM HEPES, pH 7.4). The protein concentration was determined by the biuret assay using BSA as a standard.
In an embodiment, the effect of AntiOxCINs on mitochondrial permeability transition pore opening were measured as follows: mitochondrial swelling was estimated by measuring the alterations of light scattered from a mitochondrial suspension, as monitored spectrophotometrically at 540 nm. Increasing concentrations of AntiOxCINs (2.5-10 μM) were added to the reaction medium (200 mM sucrose, 1 mM KH2PO4, 10 mM Tris (pH 7.4), 5 mM succinate and 10 μM EGTA supplemented with 1.5 μM rotenone), in the presence of RLM (1 mg), and allowed to incubate for a 5 min period before the assay. The experiments were initiated by the addition of a suitable concentration of Ca^2+ (15-50 μM), titrated every day. […] The reaction was stirred continuously and the temperature maintained at 37° C. Data are means±SEM of three independent experiments and are expressed as Aabsorbance at 540 nm.

With `COC1=C(OC)C(=O)C(CCCCCCCCCC[P+](c2ccccc2)(c2ccccc2)c2ccccc2)=C(C)C1=O.CS(=O)(=O)[O-]` [MitoQ, [10-(4,5-dimethoxy-2-methyl-3,6-dioxo-1,4-cyclohexadien-1-yl)decyl]triphenylphosphonium methanesulfonate, reference compound] the “iron (II) chelation” value [1] was “not shared by MitoQ”, the “prevention of mitochondria lipid peroxidation (TBARS levels)” value [2] was “effectively inhibited lipid peroxidation” and the “toxicity on the mitochondrial bioenergetic apparatus of RLM” value ([3]; 2.5 μM, FIG. 6A and Table 2) was “caused toxicity”. For the same compound, the “effect on respiratory states” value ([3]; concentrations up to 5 μM, glutamate/malate, FIG. 6A) was “increase on state 2, state 4 and oligomycin-inhibited respiration and a decrease on state 3 and FCCP-uncoupled respiration”, the ADP/O ([3]; glutamate/malate, 2.5 μM) was 2.2 ± 0.1 and the “RCR (respiratory control ratio, state 3/state 4)” value ([3]; glutamate/malate, 2.5 μM) was 4.2 ± 0.6. The ADP/O ([3]; glutamate/malate, 5 μM) was 1.9 ± 0.1, the “RCR (respiratory control ratio, state 3/state 4)” value ([3]; glutamate/malate, 5 μM) was 2.7 ± 0.3 and the ADP/O ([3]; glutamate/malate, 10 μM) was 2.0 ± 0.2. For the same compound, the “RCR (respiratory control ratio, state 3/state 4)” value ([3]; glutamate/malate, 10 μM) was 1.3 ± 0.1, the “coupling of RLM” value ([3]; succinate, highest concentration tested, FIG. 6A) was “completely uncoupled” and the ADP/O ([3]; succinate, 2.5 μM) was 1.3 ± 0.1. For the same compound, the “RCR (respiratory control ratio, state 3/state 4)” value ([3]; succinate, 2.5 μM) was 2.6 ± 0.2, the ADP/O ([3]; succinate, 5 μM) was 1.3 ± 0.1 and the “RCR (respiratory control ratio, state 3/state 4)” value ([3]; succinate, 5 μM) was 2.4 ± 0.2. For the same compound, the “repolarization after ADP-induced depolarization” value ([4]; 10 μM) was “no repolarization occurred”, the “ADP-induced depolarization (ΔΨ in - mV)” value ([4]; glutamate/malate, 2.5 μM) was 173.0 ± 9.3 mV and the “Lag Phase” value ([4]; glutamate/malate, 2.5 μM) was 86.5 ± 5.6 s. The “Maximum potential (ΔΨ in - mV)” value ([4]; glutamate/malate, 2.5 μM) was 195.7 ± 10.8 mV, the “Repolarization Potential (ΔΨ in - mV)” value ([4]; glutamate/malate, 2.5 μM) was 191.1 ± 11.7 mV and the “ADP-induced depolarization (ΔΨ in - mV)” value ([4]; glutamate/malate, 5 μM) was 173.5 ± 8.9^ mV. The “Lag Phase” value ([4]; glutamate/malate, 5 μM) was 84.5 ± 7.1 s, the “Maximum potential (ΔΨ in - mV)” value ([4]; glutamate/malate, 5 μM) was 188.3 ± 10.6 mV and the “Repolarization Potential (ΔΨ in - mV)” value ([4]; glutamate/malate, 5 μM) was 185.0 ± 9.4 mV. The “Maximum potential (ΔΨ in - mV)” value ([4]; glutamate/malate, 10 μM) was 113.9 ± 10.2 mV, the “ADP-induced depolarization (ΔΨ in - mV)” value ([4]; succinate, 2.5 μM) was 162.1 ± 6.0 mV and the “Lag Phase” value ([4]; succinate, 2.5 μM) was 104.8 ± 9.9 s. For the same compound, the “Maximum potential (ΔΨ in - mV)” value ([4]; succinate, 2.5 μM) was 181.6 ± 8.3 mV, the “Repolarization Potential (ΔΨ in - mV)” value ([4]; succinate, 2.5 μM) was 182.7 ± 9.1 mV and the “ADP-induced depolarization (ΔΨ in - mV)” value ([4]; succinate, 5 μM) was 157.0 ± 6.4^ mV. For the same compound, the “Lag Phase” value ([4]; succinate, 5 μM) was 92.6 ± 19.4 s, the “Maximum potential (ΔΨ in - mV)” value ([4]; succinate, 5 μM) was 170.2 ± 8.1 mV and the “Repolarization Potential (ΔΨ in - mV)” value ([4]; succinate, 5 μM) was 170.8 ± 8.7 mV. The “Maximum potential (ΔΨ in - mV)” value ([4]; succinate, 10 μM) was 108.9 ± 3.8 mV and the “effect on calcium-dependent mPTP opening” value [5] was “no effect in mPTP induction”.

For `O=C(O)CN(CCN(CC(=O)O)CC(=O)O)CC(=O)O` [EDTA, ethylenediaminetetracetic acid, reference compound], the “iron (II) chelation” value [1] was “able to chelate all the iron in solution”.
